We go through 23 molecules from ChEMBL document CHEMBL3507680, “University of Dundee, Gates Library screen for HepG2 cell viability”.

Where “and” joins values, the source holds several entries; their conditions need not be identical. Equal values may be shown once.

The nature of the first series: Human HepG2 cell viability dose-response assay. It counts as toxicity, cell-based.
Conditions: not given
Take `COc1ccccc1NC(=O)c1ccc(C)n1C`: the BOTTOM is -9.133 and -11.57; the HILLSLOPE is 2.979 and 2.832; the TOP is 100; the pXC50 is 5.661 and 5.693.
In the case of `Cl.Cl.Clc1cccc(C[C@@H]2NCCC[C@@H]2Nc2cccc(Cl)c2)c1`, the HILLSLOPE is 19.49 and 7.416; the TOP is 101.7 and 101.8; the pXC50 was 5.461 and 5.474.
As for `NCC1CCN(C2CCN(c3ccc(-c4ccco4)cc3)CC2)C1` (configuration not stated), the BOTTOM is -8.648 and -4.813; the HILLSLOPE was 7.574 and 7.233; the TOP is 102.1 and 102.4; the pXC50 was 5.593 and 5.596.
Take `COc1ccc(CNC(Cc2ccsc2)c2ccc(C)cn2)cc1OC.Cl` (configuration not stated): the BOTTOM was -6.281 and -3.457; the HILLSLOPE was 2.493 and 1.7; the TOP is 86.66 and 100; the pXC50 is 5.471 and 5.341.
Take `CC(C)c1cc(CN2CCNCC2)no1`: the BOTTOM was -2.548 and -2.696; the TOP is 101.6 and 102.2; the pXC50 was 4.866 and 4.991.
In the case of `CCc1[nH]c2c(CNc3cc(C)nc(NC)n3)cc(C)cc2c1C`, the BOTTOM was -3.677 and -3.483; the HILLSLOPE is 3.229 and 3.201; the TOP is 103.4 and 104.1; the pXC50 is 5.247 and 5.258.
For the molecule `Cc1nc(CC(C)C)cc(C(=O)N2C[C@@H](N(C)C)[C@H](C(C)C)C2)n1`, the BOTTOM is given as 0, the HILLSLOPE is 0, the TOP was found to be 0 and the pXC50 is given as less than 4.53.
`Cn1nc(C(=O)NCc2ccccn2)c2c1CCS(=O)(=O)C2` gave a BOTTOM of 0, an HILLSLOPE of 0, a TOP of 0 and a pXC50 of less than 4.53.
The molecule `COCC(NC(=O)c1cn2ccsc2n1)c1ccnn1C` (configuration not stated) showed a BOTTOM of 0, an HILLSLOPE of 0, a TOP of 0 and a pXC50 of less than 4.53.
Take `Cc1noc(CN2CCOC(CN(C)C)C2)n1` (configuration not stated): the BOTTOM is on record as 0, the HILLSLOPE turned out to be 0, the TOP stood at 0 and the pXC50 is on record as less than 4.53.
`Cc1cccc(C)c1Nc1noc2c1CN(C(=O)c1cn(C)cn1)CC2`: the BOTTOM was -7.032 and -2.364; the HILLSLOPE was 1.548 and 1.741; the TOP is 100; the pXC50 is 4.986 and 4.918.
Consider `Fc1cccc(Nc2nc(N3CCCC3)nc3c2CNCC3)c1`, for which the HILLSLOPE is 8.053 and 11.8; the TOP was 102.5 and 101.7; the pXC50 was 5.055 and 5.01.
`CCc1nc(CN(C)C2CCN(Cc3cnc(C)cn3)C2)no1` (configuration not stated): the BOTTOM amounted to 0, the HILLSLOPE is given as 0, the TOP was found to be 0 and the pXC50 was less than 4.53.
`OC1COCCN(Cc2cc(-c3ccccc3OC(F)(F)F)no2)C1` (configuration not stated) gave a BOTTOM of 0, an HILLSLOPE of 0, a TOP of 0 and a pXC50 of less than 4.53.
For the molecule `O=C(NCCCN1CCCCC1)c1ccc(-n2ccc3ccccc32)s1`, the BOTTOM was -3.023 and -2.579; the HILLSLOPE was 5.041 and 5.956; the TOP was 103.2 and 102.3; the pXC50 was 5.01 and 4.975.
Consider `O=C(CCNCC(F)(F)F)N1CCC(Nc2cccnn2)CC1`, for which the BOTTOM is 0, the HILLSLOPE turned out to be 0, the TOP was 0 and the pXC50 was less than 4.53.
On to `Cc1noc(C)c1C(=O)N1CCCC1c1c(C)nn(C)c1Cl` (configuration not stated), for which the BOTTOM was 0, the HILLSLOPE is on record as 0, the TOP turned out to be 0 and the pXC50 is less than 4.53.
In turn, `Cc1n[nH]c(C2CN(CC(=O)NCCC3=CCCCC3)CCO2)n1` (configuration not stated) displayed a BOTTOM of 0, an HILLSLOPE of 0, a TOP of 0 and a pXC50 of less than 4.53.
As to `Cc1ccc(S(=O)(=O)N2C[C@H]3C[C@H](NC(=O)c4cc[nH]n4)[C@H]3C2)cc1`, the BOTTOM was -15.24 and -16.22; the HILLSLOPE is 0.6106 and 0.5978; the TOP worked out at 100; the pXC50 was 5.239 and 5.299.
With `Cc1nn(C)cc1C(=O)Nc1cccc(CN2CCC(CO)CC2)c1`, the BOTTOM was found to be 0, the HILLSLOPE is 0, the TOP is on record as 0 and the pXC50 is recorded as less than 4.53.
Turning to `O=C(Nc1cc(C(F)(F)F)c[nH]c1=O)c1ccco1`, the BOTTOM is -14.03 and -12.55; the HILLSLOPE was 1.1 and 1.086; the TOP is listed as 100; the pXC50 is 4.903 and 4.796.
Regarding `Cc1nc(Nc2ncc(C)s2)cc(C2CCCN2)n1.Cl` (configuration not stated), the BOTTOM was 26.01 and 24.5; the HILLSLOPE was 4.462 and 3.743; the TOP was 100.2 and 98.81; the pXC50 is 5.319 and 5.315.
`Cc1cc(NC2CCc3nc(C(C)C)nn3C2)n2ncnc2n1` (configuration not stated) had a BOTTOM of 0, an HILLSLOPE of 0, a TOP of 0 and a pXC50 of less than 4.53.

A short description of another series: Human HepG2 cell viability assay in 384 well format. Format: toxicity, cell-based. More on the design: dose 125 nL, time 70.5 hour; cytotoxicity at 70.5 h: concentration not given beside the values. Particulars: HepG2 cells, read-out: Inhibition.
For `COc1ccccc1NC(=O)c1ccc(C)n1C`, the cytotoxicity at 70.5 h came out at 96%.
Same read-out and setting: under `Cl.Cl.Clc1cccc(C[C@@H]2NCCC[C@@H]2Nc2cccc(Cl)c2)c1` stands 105%; under `NCC1CCN(C2CCN(c3ccc(-c4ccco4)cc3)CC2)C1` (configuration not stated), 102%; under `COc1ccc(CNC(Cc2ccsc2)c2ccc(C)cn2)cc1OC.Cl` (configuration not stated), 91.5%.
For `CC(C)c1cc(CN2CCNCC2)no1`, the cytotoxicity at 70.5 h amounted to 94.6%.
Consider `CCc1[nH]c2c(CNc3cc(C)nc(NC)n3)cc(C)cc2c1C`, for which the cytotoxicity at 70.5 h came to 98.3%.
The same measure, in the same setting: the figure for `Cc1nc(CC(C)C)cc(C(=O)N2C[C@@H](N(C)C)[C@H](C(C)C)C2)n1` is 67%.
Same read-out and setting: the figure for `Cn1nc(C(=O)NCc2ccccn2)c2c1CCS(=O)(=O)C2` is 88.4%; for `COCC(NC(=O)c1cn2ccsc2n1)c1ccnn1C` (configuration not stated) it is 97.2%; for `Cc1noc(CN2CCOC(CN(C)C)C2)n1` (configuration not stated) it is 70.1%.
The same measure, in the same setting: under `Cc1cccc(C)c1Nc1noc2c1CN(C(=O)c1cn(C)cn1)CC2` stands 75.1%.
As to `Fc1cccc(Nc2nc(N3CCCC3)nc3c2CNCC3)c1`, the cytotoxicity at 70.5 h was found to be 80.4%.
On to `CCc1nc(CN(C)C2CCN(Cc3cnc(C)cn3)C2)no1` (configuration not stated), for which the cytotoxicity at 70.5 h was determined as 66%.
The same measure, in the same setting: under `OC1COCCN(Cc2cc(-c3ccccc3OC(F)(F)F)no2)C1` (configuration not stated) stands 60%; under `O=C(NCCCN1CCCCC1)c1ccc(-n2ccc3ccccc32)s1`, 64.9%.
Turning to `O=C(CCNCC(F)(F)F)N1CCC(Nc2cccnn2)CC1`, the cytotoxicity at 70.5 h was 66.1%.
Same read-out and setting: the figure for `Cc1noc(C)c1C(=O)N1CCCC1c1c(C)nn(C)c1Cl` (configuration not stated) is 103%.
With `Cc1n[nH]c(C2CN(CC(=O)NCCC3=CCCCC3)CCO2)n1` (configuration not stated), the cytotoxicity at 70.5 h turned out to be 76.6%.
For `Cc1ccc(S(=O)(=O)N2C[C@H]3C[C@H](NC(=O)c4cc[nH]n4)[C@H]3C2)cc1`, the cytotoxicity at 70.5 h was 61.6%.
On the same count and under the same terms, the figure for `Cc1nn(C)cc1C(=O)Nc1cccc(CN2CCC(CO)CC2)c1` is 60.6%.
In the case of `O=C(Nc1cc(C(F)(F)F)c[nH]c1=O)c1ccco1`, the cytotoxicity at 70.5 h came to 64%.
With `Cc1nc(Nc2ncc(C)s2)cc(C2CCCN2)n1.Cl` (configuration not stated), the cytotoxicity at 70.5 h came to 95.5%.
Regarding `Cc1cc(NC2CCc3nc(C(C)C)nn3C2)n2ncnc2n1` (configuration not stated), the cytotoxicity at 70.5 h is 84.4%.
